Legend:
[1] = molecular target: T1, bovine serum albumin (BSA) (Bos taurus, UniProt P02769); experiment: Cannabis smoke bubbled through aqueous BSA solution, cannabinoids determined by HPLC (Example 1a); format: binding; conditions: BSA in Hartmann's solution; FIG. 2A
T1 construct: purchased Millipore, USA
Method: Protein-bound cannabinoid was formed according to the following method. An aqueous albumin solution was prepared by adding 20 (mg)) of bovine serum albumin (BSA, from Millipore, USA) to 10 milliliters (ml) ml Hartmann's solution (B. Braun Melsungen AG, Germany). BSA was completely dissolved using a shaker (Heidolph POLYMAX 1040) at 50 revolutions per minute.
A cannabis-filled cigarette was formed using a cigarette paper containing 0.8 gr ground cannabis (provided by “Seach” Israel), from flowers and budding leaves. A Pasteur pipette was cut longitudinally at its wide end, and the cigarette was lodged in to the cut end. The narrow end of the pipette was attached to a syringe. The cigarette was lit in a fume hood, and cigarette smoke was collected in the syringe by pulling the syringe plunger. The smoke was then slowly released into the BSA solution by depressing the plunger. Approximately 350 ml of smoke-containing air was gently bubbled through the BSA solution.
As a control, a solution of 10 ml of Hartmann's solution was prepared without the addition of BSA and a similar procedure of cannabis smoke formation and bubbling was performed.
Samples having a volume of 3 ml of the BSA solution and the control solution were each inserted in to HPLC glass vials and the open vials were inserted into a vacuum oven for 24 hours at 37° Celsius.
The solid phase after the evaporation was crushed in to a fine powder using mortar and pestle. The powder was extracted using Methanol chloroform 9:1 extract solution, sonicated for 30 minutes, and was then filtered and added in to an HPLC testing tube.
HPLC was performed using an HP1050 AGILENT, DAD detector, XBridge C18 3.5 μm 4.6×150 mm column, and according to the following parameters: […]

[2] = molecular target: T2, BSA (Bos taurus, UniProt P02769); experiment: THC standard adsorption to BSA at varying ethanol content (Example 1c); format: binding, bovine; conditions: 10 micrograms BSA, 30 micrograms THC, 1.5-15 microliters ethanol; FIG. 5
T2 sequence (P02769 25-607): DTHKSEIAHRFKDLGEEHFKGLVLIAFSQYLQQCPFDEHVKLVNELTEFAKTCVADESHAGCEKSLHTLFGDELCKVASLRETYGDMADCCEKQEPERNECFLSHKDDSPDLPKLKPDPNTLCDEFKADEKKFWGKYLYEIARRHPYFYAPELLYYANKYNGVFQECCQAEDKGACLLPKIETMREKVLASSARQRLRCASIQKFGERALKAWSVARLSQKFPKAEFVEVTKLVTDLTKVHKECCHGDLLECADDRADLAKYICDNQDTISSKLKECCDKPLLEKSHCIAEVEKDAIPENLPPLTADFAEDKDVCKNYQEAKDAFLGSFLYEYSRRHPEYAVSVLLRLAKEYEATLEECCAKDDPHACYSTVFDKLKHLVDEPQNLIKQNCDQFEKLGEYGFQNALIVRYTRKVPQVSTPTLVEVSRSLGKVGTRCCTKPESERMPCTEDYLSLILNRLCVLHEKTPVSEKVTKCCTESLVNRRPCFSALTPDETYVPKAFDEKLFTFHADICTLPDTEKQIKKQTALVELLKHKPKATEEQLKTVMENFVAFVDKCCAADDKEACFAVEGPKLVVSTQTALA
Method: 30 micrograms of THC standard was dissolved in various amounts of ethanol (absolute) in various amounts, between 1.5 microliters and 15 microliters. The THC solution was then combined with 0.5 ml of a 20 microgram/ml solution of BSA. […] The results can be seen in FIG. 5.

[3] = molecular target: T2, BSA; experiment: Cannabis smoke/vapor passed through BSA/water/ethanol solution, cannabinoid profile (Example 1d); format: binding, bovine; conditions: 33% ethanol, 48 hours incubation, washed
[4] = Cannabis smoke/vapor passed through pure ethanol, cannabinoid profile (Example 1d); format: physicochemical; conditions: for relative concentration of cannabinoids (relative to total cannabinoid content), Vapor passed through ethanol: vapor at 210° C.
[5] = molecular target: T2, BSA; experiment: Adsorption capacity of BSA using THC standard (Example 1e); format: binding, bovine; conditions: albumin 20 μg/ml in water and ethanol; THC 20-60 μg/ml; incubation two hours or 12 hours; FIG. 4
Method: An albumin solution in water (20 μg/ml) and ethanol was prepared. THC standard was added at concentrations of between 20 μg/ml and 60 μg/ml. The amount of THC adsorbed to the BSA protein was determined for each concentration after incubation for either two hours or 12 hours while gently vortexing.

[6] = tested on: bovine γ-globulin; experiment: Cannabis vapor streamed through protein solution, cannabinoids adsorbed (Example 1f); format: binding; conditions: vapor of cannabis high in CBD; 1 mg/ml protein, ethanol:water 1:2, 30° C., 24 hours
Method: (§1) The protein solutions were formed using ethanol and water in a 1:2 ratio. The solutions were incubated at 30° C. for 24 hours.

[7] = molecular target: T3, ovalbumin (hen) (Gallus gallus, UniProt P01012); experiment: as above; format: binding; conditions: vapor of cannabis high in CBD; 1 mg/ml protein, ethanol:water 1:2, 30° C., 24 hours
T3 sequence (P01012 1-386): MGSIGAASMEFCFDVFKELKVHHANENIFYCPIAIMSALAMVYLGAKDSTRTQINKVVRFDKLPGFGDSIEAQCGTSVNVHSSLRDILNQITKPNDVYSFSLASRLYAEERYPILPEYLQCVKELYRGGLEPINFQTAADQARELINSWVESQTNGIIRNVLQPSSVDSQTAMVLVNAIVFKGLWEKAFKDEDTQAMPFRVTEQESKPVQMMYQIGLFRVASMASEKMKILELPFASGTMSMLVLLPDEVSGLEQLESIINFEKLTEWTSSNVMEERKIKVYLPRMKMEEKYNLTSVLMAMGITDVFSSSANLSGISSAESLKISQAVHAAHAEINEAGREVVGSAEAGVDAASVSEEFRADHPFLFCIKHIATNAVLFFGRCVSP
Method: as §1

[8] = molecular target: T4, rice recombinant human serum albumin (HSA) (Homo sapiens, UniProt P02768); experiment: as above; format: binding; conditions: vapor of cannabis high in CBD; 1 mg/ml protein, ethanol:water 1:2, 30° C., 24 hours
T4 construct: host or cells: rice (recombinant expression host)
T4 sequence (P02768 25-609): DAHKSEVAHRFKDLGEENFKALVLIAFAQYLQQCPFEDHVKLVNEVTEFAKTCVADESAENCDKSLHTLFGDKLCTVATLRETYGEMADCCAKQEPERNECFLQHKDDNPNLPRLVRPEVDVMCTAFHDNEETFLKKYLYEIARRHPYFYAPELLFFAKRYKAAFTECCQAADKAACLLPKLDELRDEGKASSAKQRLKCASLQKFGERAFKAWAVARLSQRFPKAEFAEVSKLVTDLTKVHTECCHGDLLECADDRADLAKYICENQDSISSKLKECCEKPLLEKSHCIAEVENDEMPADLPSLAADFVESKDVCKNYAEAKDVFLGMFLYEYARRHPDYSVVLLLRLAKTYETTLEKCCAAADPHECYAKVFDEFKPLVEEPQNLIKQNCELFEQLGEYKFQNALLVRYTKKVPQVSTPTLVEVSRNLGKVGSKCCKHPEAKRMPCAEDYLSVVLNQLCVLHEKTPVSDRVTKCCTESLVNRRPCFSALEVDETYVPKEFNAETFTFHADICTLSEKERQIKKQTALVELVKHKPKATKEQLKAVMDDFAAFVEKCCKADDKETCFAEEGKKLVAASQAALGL
Method: as §1

[9] = Cannabinoid content of cannabis extract (Example 2a); format: physicochemical; conditions: methanol/chloroform 9:1 cannabis extract
[10] = molecular target: T2, BSA; experiment: Cannabis extract combined with albumin solution, cannabinoids adsorbed to BSA (Example 2a); format: binding, bovine; conditions: albumin solution 10 mg/ml (BSA) with 20% ethanol, 2 hours at room temperature
[11] = molecular target: albumin (BSA) (Bos taurus, UniProt P02769); experiment: Ethanolic cannabinoid solution mixed with aqueous albumin, protein-bound cannabinoid quantified (Example 2b); format: binding, bovine; parameters: protein-bound cannabinoid quantified, Vapor: unit not given beside the values; conditions: 100 microliters ethanolic solution + 500 microliters 5 mg/ml BSA, 30° C., 12 hours, non-adsorbed cannabinoids separated
Chain of albumin (BSA) (P02769 25-607): as the sequence (P02769 25-607) above

[12] = 3 g high THC strain; 200 ml ethanol concentrated to about 3 ml
[13] = strain of cannabis high in CBD and THC

T1 sequence (P02769 25-607): as above

For `CCCCCc1cc(O)c2c(c1)OC(C)(C)[C@@H]1CCC(C)=C[C@@H]21` [THC, tetrahydrocannabinol, reference compound], the “active cannabinoids found by HPLC in BSA aqueous solution after cannabis smoke was introduced” value [1] was “dissolved in the solution”, the “adsorption of THC to protein as ethanol concentration increases” value [2] was “adsorption of THC to protein increases” and the “relative concentration of cannabinoids (relative to total cannabinoid content), Smoke passed through BSA/water/ethanol” value [3, 13] was 32.8 percent (weight/weight). The “relative concentration of cannabinoids (relative to total cannabinoid content), Vapor passed through BSA/water/ethanol” value [3, 13] was 37.7 percent (weight/weight), the “relative concentration of cannabinoids (relative to total cannabinoid content), Smoke passed through BSA/water/ethanol” value ([3]; strain of cannabis high in THC) was 69.7 percent (weight/weight) and the “relative concentration of cannabinoids (relative to total cannabinoid content), Smoke passed through ethanol” value [4, 13] was 40.7 percent (weight/weight). For the same compound, the “relative concentration of cannabinoids (relative to total cannabinoid content), Vapor passed through ethanol” value [4, 13] was 40.9 percent (weight/weight), the “relative concentration of cannabinoids (relative to total cannabinoid content), Smoke passed through ethanol” value ([4]; strain of cannabis high in THC) was 86.7 percent (weight/weight) and the “relative concentration of cannabinoids (relative to total cannabinoid content), Vapor passed through ethanol” value ([4]; strain of cannabis high in THC) was 94.6 percent (weight/weight). For the same compound, the “adsorbed THC per mg of albumin” value [5] was “above 50 μg adsorbed THC per mg of albumin”, the “percentage of each cannabinoid relative to total cannabinoids adsorbed to protein, Bovine γ-globulin” value [6] was 0 percentage and the “percentage of each cannabinoid relative to total cannabinoids adsorbed to protein, Ovalbumin” value [7] was 41.7 percentage. For the same compound, the “percentage of each cannabinoid relative to total cannabinoids adsorbed to protein, Rice recombinant HSA” value [8] was 21 percentage, the “percentage of each cannabinoid relative to total cannabinoids, Extract” value [9] was 68 percentage and the “percentage of each cannabinoid relative to total cannabinoids adsorbed to protein, Adsorbed to BSA after extract combined with BSA solution” value [10] was 63 percentage. The “protein-bound cannabinoid quantified, Smoke” value [11] was 121.38, the “protein-bound cannabinoid quantified, Vapor” value [11] was 131.955 and the “amount of cannabinoids dissolved in ethanol, Smoke” value [12] was 6195.223 micrograms/ml. The “amount of cannabinoids dissolved in ethanol, Vapor” value [12] was 3777.7796 micrograms/ml.
